Structures can show the parent of a compound that is named as a salt.
Legend:
[1] = target: T1, human collagenase-3 catalytic domain (Homo sapiens, UniProt P45452); assay: MMP inhibition in vitro, human collagenase-3; format: biochemical; conditions: MCA-Pro-Leu-Gly-Leu-DPA-Ala-Arg-NH2 hydrolysis at 37° C.; read-out: Collagenase-III IC50
T1 construct: After purification, the catalytic domain was released by treatment with 1 mM APMA for 1 hour at 37° C; ubiquitin (N, cleaved yes); made in house; host or cells: E. coli
Experimental: The propeptide and catalytic domain portion of human collagcenase-3 was expressed in E. Coli as an N-terminal fusion protein with ubiquitin. After purification, the catalytic domain was released by treatment with 1 mM APMA for 1 hour at 37° C., and then purified by zinc chelate chromatography.
(§1) The matrix metalloprotease inhibitory activity of compounds of this invention in vitro was determined based on the hydrolysis of MCA-Pro-Leu-Gly-Leu-DPA-Ala-Arg-NH2 (Bachem, Inc.) at 37° C. as described in Knight, C. G., et al., FEBS Lett., 296, 263-266 (1992).
(§2) The matrix metalloprotease enzyme was diluted with assay buffer (50 mM Tricine pH 7.5, 200 mM NaCl, 10 mM CaCl2, and 0.005% Brij-35) containing 10 μmole of above substrate dissolved in DMSO. Compounds of the invention dissolved in DMSO or only DMSO (control samples) were added such that the final DMSO concentration in all assays was 2.5%. The fluorescence changes were monitored with a Perkin-Elmer LS-50B flourimeter using an excitation wavelength of 328 nm and an emission wavelength of 393 nm.

[2] = target: T2, human collagenase-1 catalytic domain (Homo sapiens, UniProt P03956); assay: MMP inhibition in vitro, human collagenase-1; format: biochemical; conditions: MCA-Pro-Leu-Gly-Leu-DPA-Ala-Arg-NH2 hydrolysis at 37° C.; read-out: Collagenase-I IC50
T2 construct: the collagenase-1 catalytic domain was released by treatment with 1 mM of aminophenylmercuric acetate (APMA); ubiquitin (cleaved yes); made in house; host or cells: E. coli
T2 sequence (P03956 100-269 limits assumed): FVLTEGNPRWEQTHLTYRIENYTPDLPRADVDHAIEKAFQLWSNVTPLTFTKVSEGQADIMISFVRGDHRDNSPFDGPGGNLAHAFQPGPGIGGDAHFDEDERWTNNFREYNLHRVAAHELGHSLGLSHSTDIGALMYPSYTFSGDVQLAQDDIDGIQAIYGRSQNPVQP
Experimental: The catalytic domain of human collagenase-1 was expressed as a fusion protein with ubiquitin in E. Coli as described in Gehring, E. R. et al., J. Biol. Chem., 270, 22507, (1995). After purification of the fusion protein, the collagenase-1 catalytic domain was released by treatment with 1 mM of aminophenylmercuric acetate (APMA) for 1 hour at 37° C. and then purified by zinc chelate chromatography.
as §1, §2

| SMILES | melting point | IC50 [1] [nM] | IC50 [2] [nM] |
| --- | --- | --- | --- |
| CC(C)[C@@H](NS(=O)(=O)N1CCC(Oc2cccc(Cl)n2)CC1)C(=O)NO [compound 183, N-hydroxy-2-(R)-{[4-(6-chloropyridin-2-yloxy)piperidine-1-sulfonyl]amino}-3-methylbutyramide] | 81 to 96 °C | – | – |
| C[C@H](C(=O)O)N(Cc1ccccc1)S(=O)(=O)NCc1ccccc1 [compound 431] | – | 6500 | > 50000 |
| O=C(NO)[C@H]1CCCCN1S(=O)(=O)N1CCCC1 [compound 232, N-hydroxy-1-(pyrrolidine-1-sulfonyl)piperidine-2-(R)-carboxamide] | 142 to 144 °C | – | – |
| O=C(CNS(=O)(=O)N1CCN(c2cccc(Cl)c2)CC1)NO [compound 33, N-hydroxy-2-{[4-(3-chlorophenyl)piperazine-1-sulfonyl]amino}acetamide] | 138.1 to 138.6 °C | – | – |
| O=C(NO)C1(NS(=O)(=O)N2CCN(c3ccc(Cl)cc3)CC2)CCOCC1 [compound 339, N-hydroxy-4-{[4-(4-chlorophenyl)piperazine-1-sulfonyl]amino}tetrahydropyran-4-carboxamide] | 192.5 to 192.7 °C | – | – |
| O=C(NO)[C@H](NS(=O)(=O)N1CCC(Oc2ccc(Cl)cn2)CC1)C1CCCCC1 [compound 207, N-hydroxy-2-(R)-{[4-(5-chloropyridin-2-yloxy)piperidine-1-sulfonyl]amino}-2-cyclohexylacetamide] | 171.1 to 171.4 °C | – | – |
| CN(C)S(=O)(=O)N1CCN(S(=O)(=O)N2CCC(C(=O)c3ccc(Cl)cc3)CC2)[C@@H](C(=O)NO)C1 [compound 315] | – | 0.1 | – |
| C[C@@H](NS(=O)(=O)N1CCN(C(=O)Nc2ccc(Cl)cc2)CC1)C(=O)NO [compound 177, N-hydroxy-2-(R)-{[4-(4-chlorophenylaminocarbonyl)piperazine-1-sulfonyl]amino}propionamide] | – | 1.6 | 9300 |
| CC(=O)N1CCN(S(=O)(=O)N2CCC(C(=O)c3ccc(Cl)cc3)CC2)C(C(=O)NO)C1 (racemic) [compound 255] | – | 0.19 | 120 |
| COCCN(CC(=O)NO)S(=O)(=O)N1CCN(c2ccc(Cl)cc2)CC1 (as salt: TFA) [compound 16] | 54.1 to 57.7 °C | – | – |
| O=C(NO)C1CCCCN1S(=O)(=O)N1CC=C(c2ccc(Cl)cc2)CC1 (racemic) [compound 375, N-hydroxy-1-[4-(4-chlorophenyl)-1,2,3,6-tetrahydropyridine-1-sulfonyl]piperidine-2-(RS)-carboxamide] | 137.8 to 138.1 °C | – | – |
| CC(C)[C@H](C(=O)NO)N(CCCc1cccnc1)S(=O)(=O)N1CCC(Oc2ccc(Br)cc2)CC1 [compound 105] | – | 0.59 | 129 |
| O=C(NO)C1CCCCN1S(=O)(=O)N1CCC(c2c[nH]c3ccc(F)cc23)CC1 (racemic) [compound 254] | – | 181 | > 50000 |
| O=C(NO)[C@@H](Cc1ccc(O)cc1)NS(=O)(=O)N1CCN(c2ccc(Cl)cn2)CC1 [compound 103, N-hydroxy-2-(R)-{[4-(5-chloropyridin-2-yl)piperazine-1-sulfonyl]amino}-3-(4-hydroxyphenyl)propionamide] | 142 °C | – | – |
| C[C@H](NS(=O)(=O)N1CCC(C(=O)c2ccc(Cl)cc2)CC1)C(=O)NO [compound 125, N-hydroxy-2-(S)-{[4-(4-chlorobenzoyl)piperidine-1-sulfonyl]amino}propionamide] | 201.2 to 201.8 °C | – | – |
| CN(C)C(=O)N1CCN(S(=O)(=O)N2CCC(C(=O)c3ccc(Cl)cc3)CC2)[C@@H](C(=O)NO)C1 [compound 298] | – | 0.2 | 130 |
| CC(NS(=O)(=O)N1CCc2c([nH]c3ccccc23)C1)C(=O)[O-].[Na+] (stereo not shown) | 209 to 211 °C (dec.) | – | – |

| SMILES | melting point | IC50 [1] [nM] | IC50 [2] [nM] |
| --- | --- | --- | --- |
| CN(Cc1ccccc1)S(=O)(=O)N(CC(=O)NO)Cc1ccccc1 [compound 355] | – | 56 | 650 |
| Cc1cc(C2=CCN(S(=O)(=O)N3CCN(C(=O)OCc4ccccc4)CC3C(=O)NO)CC2)ccc1F (racemic) [compound 381, N-hydroxy-4-benzyloxycarbonyl-1-[4-(4-fluoro-3-methylphenyl)-1,2,3,6-tetrahydropyridine-1-sulfonyl]piperazine-2-(RS)-carboxamide] | 67 to 70 °C | – | – |
| O=C(NO)C1(NS(=O)(=O)N2CCC(Oc3ccccc3)CC2)CCCC1 [compound 337, N-hydroxy-1-{[(4-phenoxy)piperidine-1-sulfonyl]amino}cyclopentane-1-carboxamide] | 124.5 to 125.5 °C | – | – |
| O=C(NO)[C@H](NS(=O)(=O)N1CCC(c2ccc(F)cc2)CC1)c1ccc(F)cc1 [compound 230, N-hydroxy-2-(R)-{[4-(4-fluorophenyl)piperidine-1-sulfonyl]amino}-2-(4-fluorophenyl)acetamide] | 90 to 92 °C | – | – |
| C[C@@H](NS(=O)(=O)N1CCC(Oc2ccc(Cl)cc2)CC1)C(=O)NO [compound 57, N-hydroxy-2-(R)-{[4-(4-chlorophenoxy)piperidine-1-sulfonyl]amino}propionamide] | 93 to 94 °C | – | – |
| C[C@@H](NS(=O)(=O)N1CCN(C(=O)Nc2ccc(Oc3ccccc3)cc2)CC1)C(=O)NO [compound 213, N-hydroxy-2-(R)-{[4-(4-phenoxyphenylaminocarbonyl)piperazine-1-sulfonyl]amino}propionamide] | 119 to 122 °C | – | – |
| CC(C)[C@@H](NS(=O)(=O)N1CCC(c2ncc(-c3ccccc3)s2)CC1)C(=O)NO [compound 136, N-hydroxy-2-(R)-{[4-(5-phenylthiazol-2-yl)piperidine-1-sulfonyl]amino}-3-methylbutyramide] | 120 to 122.1 °C | – | – |
| CC(C)(NS(=O)(=O)N1CCC(C(=O)c2ccc(Cl)cc2)CC1)C(=O)NO [compound 351, N-hydroxy-2-{[4-(4-chlorobenzoyl)piperidine-1-sulfonyl]amino}-2-methylpropionamide] | 185.7 to 186.7 °C | – | – |
| COCCN(CC(=O)NO)S(=O)(=O)N1CCN(c2ccc(Cl)cc2)CC1 [compound 16] | – | 21 | 22000 |
| CC(C)(C)[C@@H](NS(=O)(=O)N1CCN(c2ccc(Cl)cc2)CC1)C(=S)NO [compound 62, N-hydroxy-2-(R)-{[4-(4-chlorophenyl)piperazine-1-sulfonyl]amino}-3-methyl-3-methylthiobutyramide] | 158.5 to 159.6 °C | – | – |
| N#Cc1ccc2[nH]cc(C3CCN(S(=O)(=O)N4CCCC[C@@H]4C(=O)NO)CC3)c2c1 [compound 294] | – | 340 | > 50000 |
| C[C@@H](NS(=O)(=O)N1CCN(c2ccc(Cl)cc2)CC1)C(=O)O [compound 414] | – | 3400 | > 50000 |
| C[C@@H](NS(=O)(=O)N1CCC(C(=O)c2ccc(Oc3ccccc3)cc2)CC1)C(=O)NO [compound 148, N-hydroxy-2-(R)-{[4-(4-phenoxybenzoyl)piperidine-1-sulfonyl]amino}propionamide] | 202 to 205 °C | – | – |
| CN(Cc1ccccc1)S(=O)(=O)N(CC(=O)O)Cc1ccccc1 [compound 430] | – | 890 | 2200 |
| O=C(NO)C1(NS(=O)(=O)N2CCN(c3ccc(Cl)cn3)CC2)CCCCC1 [compound 342] | – | 2.1 | 170 |
| O=CN1CCN(S(=O)(=O)N2CCC(C(=O)c3ccc(Cl)cc3)CC2)C(C(=O)NO)C1 (racemic) [compound 262] | – | 0.13 | 88 |

Reference: patent publication US6376506B1, “Sulfamide-metalloprotease inhibitors” (Syntex (U.S.A.) LLC, priority 1997, dated 2002)
